Experimental data published in the NIST ThermoML archive (doi:10.1016/j.fluid.2005.12.016).

Assay: osmotic coefficient (dimensionless); mn = molality of the nth substance listed, in mol/kg
Conditions: 298.15 K, 101 kPa, Liquid, isopiestic method

OCCC(O)CO (stereo not given) [1,2,4-butanetriol] + O
Conditions	osmotic coefficient
m1 = 0.7526	0.9857
m1 = 1.34	0.9912
m1 = 1.929	0.9968
m1 = 2.745	1.0059
m1 = 2.8	1.0065
m1 = 3.691	1.019
m1 = 5.916	1.062

CCC(O)CO (stereo not given) [1,2-butanediol] + O
Conditions	osmotic coefficient
m1 = 0.2302	0.9585
m1 = 0.803	0.9286
m1 = 0.8128	0.9282
m1 = 1.046	0.9205
m1 = 1.056	0.9202
m1 = 2.093	0.8967
m1 = 3.038	0.8831
m1 = 3.044	0.8831
m1 = 4.304	0.8709

CC(O)CCO (stereo not given) [1,3-butanediol] + O
Conditions	osmotic coefficient
m1 = 0.2289	0.9766
m1 = 0.7849	0.9509
m1 = 1.051	0.9416
m1 = 2.968	0.9042
m1 = 2.969	0.9042
m1 = 4.186	0.8953
m1 = 4.197	0.8953

OCCCCO [1,4-butanediol] + O
Conditions	osmotic coefficient
m1 = 0.2252	0.977
m1 = 0.778	0.9474
m1 = 0.7931	0.9467
m1 = 1.054	0.9349
m1 = 2.148	0.892
m1 = 2.158	0.8916
m1 = 3.12	0.8619
m1 = 4.499	0.8341
m1 = 4.501	0.8341

CC(O)C(C)O (stereo not given) [2,3-butanediol] + O
Conditions	osmotic coefficient
m1 = 0.6071	0.9429
m1 = 0.8087	0.9359
m1 = 1.995	0.913
m1 = 2.96	0.9043

OC[C@@H](O)[C@@H](O)CO [meso-1,2,3,4-butanetetrol] + O
Conditions	osmotic coefficient
m1 = 0.2173	1.0019
m1 = 0.2196	1.0019
m1 = 0.5657	1.011
m1 = 0.5662	1.011
m1 = 0.7365	1.014
m1 = 0.74	1.014
m1 = 0.9458	1.017
m1 = 1.113	1.019
m1 = 1.114	1.019
